# Measured values: patent US20040191849A1, “Method for identifying fungicides” (priority 2002, published 2004)
# Key:
# RPI = assay: Spectrophotometric RPI assay, increase in absorption at 290 nm (KM determination); settings: read-out: KM value; substrate of RPI; Lineweaver-Burk plot; 400 ng of RPI; without coupled enzymes
# Experimental: The measurement was carried out with 400 ng of RPI.
# The reaction volume amounted to 700 μl.
# Erysiphe graminis = assay: Induction of resistance to Erysiphe graminis in a plant; format: in vivo; settings: Hordeum vulgaris; inoculated with Erysiphe graminis 4 days after treatment; 100 = maximum activity, 0 = no activity
# Excerpt: In the case of Erysiphe graminis, the induction of resistance to this fungus, in a plant, was furthermore tested by way of example. To this end, the plant is inoculated with the pathogen 4 days after treatment of the plant with the test substance. The activity of the substance is given as efficacy in %.
# [1] = test system: ribose-phosphate isomerase; settings: Jung et al., Arch. Biochem. Biophys. 373 (2000) 409-417; cited from earlier work
compound,measurement,setting,value
O=C[C@H](O)[C@H](O)[C@H](O)COP(=O)(O)O [D-ribose-5-phosphate],Km,RPI,6.3 mM
COc1ccc(S(=O)(=O)N(C)C)cc1CCC(C)NCC1CC2(CCCC2)Oc2ccccc21.O=C(O)/C=C/C(=O)O (stereo not drawn) [Example 2],resistance induction (efficacy),Erysiphe graminis,50%
phosphate,ribose-phosphate isomerase inhibitor strength,[1],weak
